ChEMBL document CHEMBL5518206, “Hit-to-Lead Identification and Validation of a Triaromatic Pleuromutilin Antibiotic Candidate” (J Med Chem, 2024)
Values after ≈ are worked out from the molar mass of the structure shown. Active and inactive are the calls of the source. No cut-off for these calls is given here.

Columns and labels:
in vitro [1] = settings: human, liver microsomes
Streptococcus pneumoniae = experiment: Antibacterial activity against Streptococcus pneumoniae assessed as inhibition of visible growth incubated for 20 to 24 hrs by microbroth serial dilution assay; type: functional; settings: time 20-24 hrs, read-out: MIC100
in vitro [2] = settings: human, liver microsomes; remark: listed apart in the source
MDCK-MDR1 = experiment: Cytotoxicity against MDCKII-MDR1 cells assessed as cell viability at 100 uM measured by MTT assay; type: toxicity, cell-based, Canis lupus familiaris; settings: dog, mdck-mdr1, 100 µM
[3] = Inhibition of P-gp efflux in MDCKII-MDR1 cells using calcein-AM as substrate assessed as intracellular calcein fluorescence preincubated for 15 mins followed by substrate addition and measured by fluorescence based assay; type: cell-based; settings: Canis lupus familiaris
in vitro [4] = settings: pig, liver microsomes
in vitro [5] = settings: pig, liver microsomes; remark: listed apart in the source
Escherichia coli = experiment: Antibacterial activity against Escherichia coli assessed as inhibition of visible growth incubated for 20 to 24 hrs by microbroth serial dilution assay; type: functional, organism-based; settings: time 20-24 hrs
Enterococcus faecium [6] = experiment: Antibacterial activity against Linezolid/Ampicillin/ciprofloxacin/Vancomycin-resistant Enterococcus faecium assessed as inhibition of visible growth incubated for 20 to 24 hrs by microbroth serial dilution assay; type: functional; settings: time 20-24 hrs, read-out: MIC100
in vitro [7] = settings: mouse, liver microsomes
[8] = tested on: Staphylococcus epidermidis; experiment: Antibacterial activity against Staphylococcus epidermidis assessed as inhibition of visible growth incubated for 20 to 24 hrs by microbroth serial dilution assay; type: functional, organism-based; settings: time 20-24 hrs
in vitro [9] = settings: mouse, liver microsomes; remark: listed apart in the source
Listeria = experiment: Antibacterial activity against Listeria assessed as inhibition of visible growth incubated for 20 to 24 hrs by microbroth serial dilution assay; type: functional, organism-based; settings: time 20-24 hrs
Staphylococcus aureus = experiment: Antibacterial activity against multi drug-resistant Staphylococcus aureus USA300 FPR3757 assessed as inhibition of visible growth incubated for 20 to 24 hrs by microbroth serial dilution assay; type: functional; settings: time 20-24 hrs, read-out: MIC100
Enterococcus faecium [10] = experiment: Antibacterial activity against Vancomycin-resistant Enterococcus faecium assessed as inhibition of visible growth incubated for 20 to 24 hrs by microbroth serial dilution assay; type: functional; settings: time 20-24 hrs, read-out: MIC100
[11] = Solubility of the compound in Dulbecco's PBS at 20 degree C measured after 24 hrs
Enterococcus faecalis = experiment: Antibacterial activity against Enterococcus faecalis assessed as inhibition of visible growth incubated for 20 to 24 hrs by microbroth serial dilution assay; type: functional; settings: time 20-24 hrs, read-out: MIC100

| SMILES | CLint scaled at 0.5 h, 1 µM (in vitro [1]) [L/h/kg] | MIC (Streptococcus pneumoniae) [µg/mL] | half-life at 0.5 h, 1 µM (in vitro [2]) [min] | Activity (MDCK-MDR1) | IC50 [3] [µM] | CLint scaled at 0.5 h, 1 µM (in vitro [4]) [L/h/kg] | half-life at 0.5 h, 1 µM (in vitro [5]) [min] | Activity (Escherichia coli) | MIC (Enterococcus faecium [6]) [µg/mL] | half-life at 0.5 h, 1 µM (in vitro [7]) [min] | Activity [8] | CLint scaled at 0.5 h, 1 µM (in vitro [9]) [L/h/kg] | Activity (Listeria) | MIC (Staphylococcus aureus) [µg/mL] | MIC (Enterococcus faecium [10]) [µg/mL] | solubility at 24 h [11] [µM] | MIC (Enterococcus faecalis) [µg/mL] |
| --- | --- | --- | --- | --- | --- | --- | --- | --- | --- | --- | --- | --- | --- | --- | --- | --- | --- |
| C=C[C@]1(C)C[C@@H](OC(=O)Cn2cc(-c3ccc(Cn4cnc5c(N6CCN(C)CC6)ncnc54)cc3)nn2)[C@]2(C)[C@H](C)CC[C@]3(CCC(=O)[C@H]32)[C@@H](C)[C@@H]1O | 266 | 0.12 (≈ 0.163 µM) | 1.4 | Non-Toxic | 2 | 630 | 0.5 | inactive | 0.12 (≈ 0.163 µM) | 1.1 | inactive | 293 | inactive |  |  |  |  |
| C=C[C@]1(C)C[C@@H](OC(=O)Cn2cc(-c3ccc(Cn4cnc5c(N)ncnc54)c(OC)c3)nn2)[C@]2(C)[C@H](C)CC[C@]3(CCC(=O)[C@H]32)[C@@H](C)[C@@H]1O |  | 0.25 (≈ 0.366 µM) |  |  | 46 |  |  |  | 0.12 (≈ 0.176 µM) |  |  |  |  | 0.06 (≈ 0.0879 µM) | 0.12 (≈ 0.176 µM) | 2.2 (≈ 1.5 µg/mL) | 0.25 (≈ 0.366 µM) |
| C=C[C@]1(C)C[C@@H](OC(=O)Cn2cc(-c3ccc([C@@H](C)n4cnc5c(N)ncnc54)cc3)nn2)[C@]2(C)[C@H](C)CC[C@]3(CCC(=O)[C@H]32)[C@@H](C)[C@@H]1O |  | 0.25 (≈ 0.375 µM) |  |  | 50 |  |  |  | 0.25 (≈ 0.375 µM) |  |  |  |  | 0.12 (≈ 0.18 µM) | 0.25 (≈ 0.375 µM) | 2.6 (≈ 1.73 µg/mL) | 0.5 (≈ 0.75 µM) |
| C=C[C@]1(C)C[C@@H](OC(=O)Cn2cc(-c3ccc(Cn4cnc5c(N)nc(N)nc54)cc3)nn2)[C@]2(C)[C@H](C)CC[C@]3(CCC(=O)[C@H]32)[C@@H](C)[C@@H]1O |  | 0.5 (≈ 0.749 µM) |  | Non-Toxic | > 100 |  |  |  | 0.12 (≈ 0.18 µM) |  |  |  |  | 0.06 (≈ 0.0898 µM) | 0.12 (≈ 0.18 µM) | 1.9 (≈ 1.27 µg/mL) | 0.25 (≈ 0.374 µM) |
| C=C[C@]1(C)C[C@@H](OC(=O)Cn2cc(-c3ccc(Cn4cnc5c(N)ncnc54)nc3)nn2)[C@]2(C)[C@H](C)CC[C@]3(CCC(=O)[C@H]32)[C@@H](C)[C@@H]1O | 194 | 0.25 (≈ 0.382 µM) | 1.9 | Non-Toxic | 98 |  |  |  | 0.12 (≈ 0.184 µM) | 0.58 |  | 571 |  | 0.03 (≈ 0.0459 µM) | 0.12 (≈ 0.184 µM) | 6.7 (≈ 4.38 µg/mL) | 0.25 (≈ 0.382 µM) |
| C=C[C@]1(C)C[C@@H](OC(=O)Cn2cc(-c3ccc([C@@H](C)n4cnc5c(N6CCNCC6)ncnc54)cc3)nn2)[C@]2(C)[C@H](C)CC[C@]3(CCC(=O)[C@H]32)[C@@H](C)[C@@H]1O |  | 0.25 (≈ 0.34 µM) |  |  | 7 |  |  |  | 0.25 (≈ 0.34 µM) |  |  |  |  | 0.25 (≈ 0.34 µM) | 0.25 (≈ 0.34 µM) | 10 (≈ 7.36 µg/mL) | 0.5 (≈ 0.679 µM) |
